Test results as given in US20240270762A1, “PENICILLIN-BINDING PROTEIN INHIBITORS” (priority 2021, published 2024).
In brackets after ≈: the same amount, converted by molar mass. Read-outs that look alike come from different tables or passages of the source.

Experiments:
N. gonorrhoeae FA1090 = assay: Liquid broth MIC in Fastidious broth; conditions: Neisseria gonorrhoeae
Procedure: Additional antibacterial testing of the series was performed in 8 reference strains of N. gonorrhoeae (ATCC 49226, FA1090, MS 11, WHO G, WHO L, WHO M, WHO K, WHO X, WHO Z, WHO Q, CDC-0197). ATCC 49226, FA1090, MS11, WHO G, WHO L, and WHO M produce wild type or wild-type like PBP2. WHO K, WHO X, WHO Z, WHO Q, and CDC-0197 produce mosaic PBP2. Liquid broth-based assays were used for antibacterial testing of PBP inhibitors in Neisseria gonorrhoeae. Briefly, cryo-preserved bacterial cultures of clinical strains were streaked for isolation on Chocolate Agar (72 g/L (2×) GC Agar Base (BD #228950) and 2% (2×) Hemoglobin was autoclaved at 121° C. for 20 minutes to sterilize. Once cooled to ˜50° C. the 2×GC Agar Base and 2× Hemoglobin solutions are combined and 1% IsoVitaleX Enrichment (BD #211876) was added to the solution). Strains were incubated at 36° C. and 5% CO2 to allow growth of colonies, 24 hours before inoculum preparation. 2-fold serial dilutions of test compounds were conducted in a 96 well plate with a final volume of 75 μL per well at 2-fold the final desired concentration in Fastidious broth (Remel #R07664). For preparation of assay inoculum, a direct suspension was prepared by aseptically swabbing 10-15 colonies from agar plates into culture tubes containing 2 mL of fresh sterile saline. After the dilution plates were set up, direct suspensions were then diluted in a cuvette containing sterile saline and the optical density was measured at 600 nm. Inocula were diluted such that 75 μL of this culture in Fastidious broth results in a starting bacterial concentration of 5×10^5 CFU/mL when added to the dilution plates. The plates were incubated for ˜24 hours at 36° C. and 5% CO2.

A. baumannii CDC-0036 = assay: microbe, parasite or virus in culture; format: cell-based; conditions: Acinetobacter baumannii, CDC0036, read-out: MIC, A. baumannii CDC-0036
P. aeruginosa CDC-0110 = assay: microbe, parasite or virus in culture; format: cell-based; conditions: Pseudomonas aeruginosa, CDC0110, read-out: Minimum inhibitory concentration, P. aeruginosa CDC-0110
P. aeruginosa ATCC 27853 = assay: microbe, parasite or virus in culture; format: cell-based; conditions: Pseudomonas aeruginosa, ATCC27853, read-out: Minimum inhibitory concentration, P. aeruginosa ATCC 27853
[1] = test system: B. humptydooensis ATCC BAA-2767; assay: microbe, parasite or virus in culture; format: cell-based; conditions: Burkholderia humptydooensis, ATCCBAA2767, read-out: Minimum inhibitory concentration (MIC), B. humptydooensis ATCC BAA-2767
N. gonorrhoeae WHO G = assay: Liquid broth MIC in Fastidious broth; conditions: Neisseria gonorrhoeae
P. aeruginosa CDC-0054 = assay: microbe, parasite or virus in culture; format: cell-based; conditions: Pseudomonas aeruginosa, CDC0054, read-out: Minimum inhibitory concentration, P. aeruginosa CDC-0054
P. aeruginosa CDC-0090 = assay: microbe, parasite or virus in culture; format: cell-based; conditions: Pseudomonas aeruginosa, CDC0090, read-out: Minimum inhibitory concentration, P. aeruginosa CDC-0090
[2] = target: T1, PBP3 from Pseudomonas aeruginosa (PAO1) (Pseudomonas aeruginosa, UniProt G3XD46); assay: Bocillin-FL fluorescence polarization competition binding, P. aeruginosa PBP3; conditions: Binding affinity to P. aeruginosa PBP3; fluorescence polarization competition binding assay using Bocillin-FL; read-out: P. aeruginosa PBP3 Potency
T1 construct: made in house
T1 sequence (G3XD46 whole entry): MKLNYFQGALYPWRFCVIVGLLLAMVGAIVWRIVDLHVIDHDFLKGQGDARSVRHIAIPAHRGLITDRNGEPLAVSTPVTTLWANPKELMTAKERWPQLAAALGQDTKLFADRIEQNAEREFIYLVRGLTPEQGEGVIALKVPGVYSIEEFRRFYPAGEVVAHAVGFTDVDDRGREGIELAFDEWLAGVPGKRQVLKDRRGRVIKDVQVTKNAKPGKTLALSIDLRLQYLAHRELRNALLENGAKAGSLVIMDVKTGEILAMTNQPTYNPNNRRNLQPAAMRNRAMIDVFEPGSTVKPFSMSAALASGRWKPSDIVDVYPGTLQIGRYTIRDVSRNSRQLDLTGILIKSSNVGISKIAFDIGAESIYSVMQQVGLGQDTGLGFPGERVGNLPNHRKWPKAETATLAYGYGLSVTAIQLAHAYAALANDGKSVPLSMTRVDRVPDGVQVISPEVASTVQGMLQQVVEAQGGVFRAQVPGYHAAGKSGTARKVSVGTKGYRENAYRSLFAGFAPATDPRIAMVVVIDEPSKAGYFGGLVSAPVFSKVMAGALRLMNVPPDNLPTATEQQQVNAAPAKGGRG
In short: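 Purified PBPs pre-incubated with inhibitor (E. coli PBP3 1.5 μM, 30 min; P. aeruginosa PBP3 0.75 μM, A. baumannii PBP1a 1 μM and PBP3 0.2 μM, 15 min), then Bocillin-FL 0.1 μM (0.05 μM for PBP1a) added; FP read up to 60 min. EC50 = concentration halving bound Bocillin-FL.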

A. baumannii CDC-0083 = assay: microbe, parasite or virus in culture; format: cell-based; conditions: Acinetobacter baumannii, CDC0083, read-out: MIC, A. baumannii CDC-0083
[3] = test system: N. gonorrhoeae ATCC 49226; assay: Liquid broth MIC in Fastidious broth; conditions: Neisseria gonorrhoeae
N. gonorrhoeae WHO X = assay: Liquid broth MIC in Fastidious broth; conditions: Neisseria gonorrhoeae
Procedure: Liquid broth-based assays were used for antibacterial testing of PBP inhibitors in Neisseria gonorrhoeae. Briefly, cryo-preserved bacterial cultures of clinical strains were streaked for isolation on Chocolate Agar (72 g/L (2×) GC Agar Base (BD #228950) and 2% (2×) Hemoglobin was autoclaved at 121° C. for 20 minutes to sterilize. Once cooled to ˜50° C. the 2×GC Agar Base and 2× Hemoglobin solutions are combined and 1% IsoVitaleX Enrichment (BD #211876) was added to the solution). Strains were incubated at 36° C. and 5% CO2 to allow growth of colonies, 24 hours before inoculum preparation. 2-fold serial dilutions of test compounds were conducted in a 96 well plate with a final volume of 75 μL per well at 2-fold the final desired concentration in Fastidious broth (Remel #R07664). For preparation of assay inoculum, a direct suspension was prepared by aseptically swabbing 10-15 colonies from agar plates into culture tubes containing 2 mL of fresh sterile saline. After the dilution plates were set up, direct suspensions were then diluted in a cuvette containing sterile saline and the optical density was measured at 600 nm. Inocula were diluted such that 75 μL of this culture in Fastidious broth results in a starting bacterial concentration of 5×10^5 CFU/mL when added to the dilution plates. The plates were incubated for ˜24 hours at 36° C. and 5% CO2.

N. gonorrhoeae WHO M = assay: Liquid broth MIC in Fastidious broth; conditions: Neisseria gonorrhoeae
[4] = FA1090, read-out: Minimum Inhibitory Concentration (MIC), N. gonorrhoeae FA 1090
[5] = read-out: Minimum Inhibitory Concentration (MIC), N. gonorrhoeae WHO G
[6] = ATCC49226, read-out: Minimum Inhibitory Concentration (MIC), N. gonorrhoeae ATCC 49226
[7] = read-out: Minimum Inhibitory Concentration (MIC), N. gonorrhoeae WHO X
[8] = read-out: Minimum Inhibitory Concentration (MIC), N. gonorrhoeae WHO M

| Compound | MIC (N. gonorrhoeae FA1090; [4]) [µg/mL] | MIC (A. baumannii CDC-0036) [µg/mL] | MIC (P. aeruginosa CDC-0110) [µg/mL] | MIC (P. aeruginosa ATCC 27853) [µg/mL] | MIC [1] [µg/mL] | MIC (N. gonorrhoeae WHO G; [5]) [µg/mL] | MIC (P. aeruginosa CDC-0054) [µg/mL] | MIC (P. aeruginosa CDC-0090) [µg/mL] | IC50 [2] [µM] | MIC (A. baumannii CDC-0083) [µg/mL] | MIC [3, 6] [µg/mL] | MIC (N. gonorrhoeae WHO X; [7]) [µg/mL] | MIC (N. gonorrhoeae WHO M; [8]) [µg/mL] | MIC (N. gonorrhoeae FA1090; FA1090, read-out: Minimum Inhibitory Concentration, FA 1090) [µg/mL] | MIC (N. gonorrhoeae WHO G; read-out: Minimum Inhibitory Concentration, WHO G) [µg/mL] | MIC ([3]; ATCC49226, read-out: Minimum Inhibitory Concentration, ATCC 49226) [µg/mL] | MIC (N. gonorrhoeae WHO X; read-out: Minimum Inhibitory Concentration, WHO X) [µg/mL] | MIC (N. gonorrhoeae WHO M; read-out: Minimum Inhibitory Concentration, WHO M) [µg/mL] |
| --- | --- | --- | --- | --- | --- | --- | --- | --- | --- | --- | --- | --- | --- | --- | --- | --- | --- | --- |
| O=C(NCCN1CCN(C(=O)NC(C(=O)N[C@H]2Cc3ccc(F)c(C(=O)O)c3OB2O)c2cc(F)c(O)c(O)c2Cl)C1=O)c1ccc(O)cc1 (stereo partly drawn) [Example 243, (3R)-3-(2-(2-chloro-5-fluoro-3,4-dihydroxyphenyl)-2-(3-(2-(4-hydroxybenzamido)ethyl)-2-oxoimidazolidine-1-carboxamido)acetamido)-7-fluoro-2-hydroxy-3,4-dihydro-2H-benzo[e][1,2]oxaborinine-8-carboxylic acid] | 4 to 8 (≈ 5.57 to 11.1 µM) | < 1 | < 1 | < 1 | 2 to 4 (≈ 2.79 to 5.57 µM) | 16 to 32 (≈ 22.3 to 44.6 µM) | 2 to 4 (≈ 2.79 to 5.57 µM) | < 1 | < 10 | < 1 | 16 to 32 (≈ 22.3 to 44.6 µM) | > 64 | 4 to 8 (≈ 5.57 to 11.1 µM) |  |  |  |  |  |
| O=C(NCCN1CCN(C(=O)NC(C(=O)N[C@H]2Cc3ccc(F)c(C(=O)O)c3OB2O)c2cc(F)c(O)c(O)c2Cl)C1=O)c1cccc(O)c1 (stereo partly drawn) [Example 244, (3R)-3-(2-(2-chloro-5-fluoro-3,4-dihydroxyphenyl)-2-(3-(2-(3-hydroxybenzamido)ethyl)-2-oxoimidazolidine-1-carboxamido)acetamido)-7-fluoro-2-hydroxy-3,4-dihydro-2H-benzo[e][1,2]oxaborinine-8-carboxylic acid] | 4 to 8 (≈ 5.57 to 11.1 µM) | 2 to 4 (≈ 2.79 to 5.57 µM) | 2 to 4 (≈ 2.79 to 5.57 µM) | 2 to 4 (≈ 2.79 to 5.57 µM) | 2 to 4 (≈ 2.79 to 5.57 µM) | 16 to 32 (≈ 22.3 to 44.6 µM) | 2 to 4 (≈ 2.79 to 5.57 µM) | < 1 | < 10 | < 1 | > 64 | > 64 | 16 to 32 (≈ 22.3 to 44.6 µM) |  |  |  |  |  |
| O=C(NCCN1CCN(C(=O)NC(C(=O)N[C@H]2Cc3ccc(F)c(C(=O)O)c3OB2O)c2cc(F)c(O)c(O)c2Cl)C1=O)c1ccncc1 (stereo partly drawn) [Example 245, (3R)-3-(2-(2-chloro-5-fluoro-3,4-dihydroxyphenyl)-2-(3-(2-(isonicotinamido)ethyl)-2-oxoimidazolidine-1-carboxamido)acetamido)-7-fluoro-2-hydroxy-3,4-dihydro-2H-benzo[e][1,2]oxaborinine-8-carboxylic acid] | 4 to 8 (≈ 5.69 to 11.4 µM) | 2 to 4 (≈ 2.85 to 5.69 µM) | < 1 | 2 to 4 (≈ 2.85 to 5.69 µM) | < 1 | 16 to 32 (≈ 22.8 to 45.5 µM) | 2 to 4 (≈ 2.85 to 5.69 µM) | < 1 | < 10 | < 1 | 16 to 32 (≈ 22.8 to 45.5 µM) | > 64 | 16 to 32 (≈ 22.8 to 45.5 µM) |  |  |  |  |  |
| O=C(NCCN1CCN(C(=O)NC(C(=O)N[C@H]2Cc3ccc(F)c(C(=O)O)c3OB2O)c2cc(F)c(O)c(O)c2Cl)C1=O)c1cccnc1 (stereo partly drawn) [Example 246, (3R)-3-(2-(2-chloro-5-fluoro-3,4-dihydroxyphenyl)-2-(3-(2-(nicotinamido)ethyl)-2-oxoimidazolidine-1-carboxamido)acetamido)-7-fluoro-2-hydroxy-3,4-dihydro-2H-benzo[e][1,2]oxaborinine-8-carboxylic acid] |  | 2 to 4 (≈ 2.85 to 5.69 µM) | < 1 | 2 to 4 (≈ 2.85 to 5.69 µM) | 2 to 4 (≈ 2.85 to 5.69 µM) |  | 2 to 4 (≈ 2.85 to 5.69 µM) | 2 to 4 (≈ 2.85 to 5.69 µM) | < 10 | < 1 |  |  |  | 4 to 8 (≈ 5.69 to 11.4 µM) | 16 to 32 (≈ 22.8 to 45.5 µM) | 16 to 32 (≈ 22.8 to 45.5 µM) | > 64 | 16 to 32 (≈ 22.8 to 45.5 µM) |
